In brackets after ≈: the same amount, converted by molar mass. Several values for one entry are separate records, joined by “and”; a condition that tells them apart may be missing. Identical values can stand only once. Entries after “also recorded” stand apart in the source; their conditions may differ.
Key:
S. aureus biofilms = assay: Biofilm susceptibility, resazurin-conversion assay on plasma-coated wells; type: cell-based, Staphylococcus aureus
Description: Biofilms were formed as previously described to mimic in vivo conditions that promote formation of coagulase-mediated biofilms.[16] Briefly, microtitre plates or glass-bottom culture dishes (MaTek Co., USA) were coated with either 20% (v/v) or 100% (v/v) human plasma, respectively, and inoculated with S. aureus at an OD600 ∼0.2. After 1 h, non-adherent bacteria were aspirated, replaced with fresh RPMI-1640 and biofilms allowed to form over 24 h at 37 °C. Pre-formed biofilms were treated for 24 h with either 5HE-C14-TMA, C14-TOA or C14-TTA or a positive control [ethanol at 40% (v/v)]. Biofilm viability was measured by (i) resazurin-conversion assay (in microtitre wells), or (ii) live/dead imaging (glass-bottom dishes). Conversion of the non-fluorescent redox dye, resazurin into the fluorescent resorufin was performed as described previously.[16] A 44 μM resazurin (Sigma-Aldrich, UK) solution in RPMI-1640 was added to an equal biofilm volume and incubated for 1 h at 37 °C. Fluorescence (excitation 544 nm, emission 590 nm) was quantified using a Perkin Elmer 2030 Multilabel Reader Victor^TM X3. Biofilms were stained with SYTO9 Green (at 13.36 μM) and propidium iodide (at 80 μM) (Molecular Probes®) for 1 h prior to washing. Four representative images at ×40 and ×100 were obtained per experimental group, per experiment using a Zeiss LSM 510 META confocal microscope. Each experiment was repeated at least three times. Fluorescence intensity was quantified using Image J1 software (http://imagej.net/Welcome).

S. aureus = settings: cited from earlier work
[1] = test system: Primary human umbilical vein endothelial cells (HUVECs); assay: MTT cell viability assay, HUVEC; type: cell-based; settings: HUVECs
Description: (§1) Human keratinocyte (HaCaT) cells were cultured in DMEM supplemented with 10% (v/v) FBS. Primary human umbilical vein endothelial cells (HUVECs) were cultured in EGM™-2 Bulletkit (Lonza) medium. HaCaT and HUVECs were harvested using TrypLE^TM Express (Gibco). Cells were seeded in microtitre plates at 3 × 10^5 cells/mL and incubated for 24 h at 37 °C with an antimicrobial compound ([…]) or Triton X100 at 1% (v/v). After removing the medium, cells were incubated with 500 mg/L MTT (Sigma-Aldrich) for 4 h. The crystals formed were solubilized with DMSO. Absorbance was recorded at 560 nm and the CC50 was determined.

[2] = MTT cell viability assay, HUVEC; type: cell-based, human; settings: human, primary HUVECs (umbilical vein endothelial cells); HUVEC, MTT, 24 h
Description: as §1

[3] = test system: S. aureus USA300lux biofilm; assay: Rat IVC (jugular vein catheter) biofilm infection model; type: in vivo; settings: CLS 512 mg/L, 40 μL daily for 5 days
Description: Rats (male, Sprague–Dawley) were pre-implanted with jugular vein polyurethane catheters (13.5 cm long, outside diameter 1.1 mm, inside diameter 0.6 mm) (Charles River, UK). Daily flushing was performed with 150 μL sodium chloride [0.1% (w/v)] following introduction of 40 μL heparin (100 IU), sodium chloride 0.1% (w/v) within the lumen. IVC-biofilm infection was developed as previously reported.[24–26] Catheters were inoculated with 40 μL S. aureus USA300lux suspension at 1 × 10^4 cfu/mL ‘locked’ within the catheter for 1 day. Intravenous vancomycin (50 mg/kg) was administered twice daily at 12 h intervals to prevent systemic spread of infection. CLS consisting of 5HE-C14-TMA (40 μL) at 512 mg/L in sodium chloride 0.1% (w/v) was administered daily for 5 days upon development of infection. After 5 days of treatment, catheters were removed and luminescence imaged using a Perkin Elmer IVIS Spectrum instrument (exposure, 20 s; binning: 4, f1). Bacteria were harvested from the catheters by treatment with TrypLE^TM Express (Gibco) and washing prior to determining viable counts.

[4] = MTT cell viability assay, HaCaT; type: cell-based, Human; settings: human, HaCaT keratinocyte cells; HaCaT, MTT, 24 h
Description: as §1

[5] = test system: Human keratinocyte (HaCaT) cells; assay: MTT cell viability assay, HaCaT; type: cell-based; settings: HaCaT cells
Description: as §1

S. aureus strain BH48 = assay: MIC by broth microdilution (CLSI), strain BH48; type: cell-based; settings: Staphylococcus aureus; BH48 (MSSA), Mueller–Hinton broth
Description: (§2) Community-acquired MRSA (CA-MRSA) strain USA300, its isogenic agr mutant,[17] the hospital-acquired MRSA (HA-MRSA) strain BH1CC,[18] the HA-MSSA strain BH48[19] and the MSSA strain SH1000[20] were cultured in Mueller–Hinton broth for susceptibility testing or in RPMI-1640 (Gibco) for biofilm formation. For the rat jugular vein catheter infection model, the S. aureus strain USA300 (LAC) lux[21] was used.
(§3) 5HE-C14-TMA and C14-TOA were synthesized as described previously[9] and C14-TTA as described in the Supplementary data available at JAC Online. Stock solutions of the compounds in DMSO at 10–50 mM were further diluted into tissue culture media or sodium chloride for the in vivo experiments. A DMSO solvent control was used in all in vitro experiments. The following antibiotics were used: vancomycin (Vancocin; Flynn Pharma Ltd., Republic of Ireland), daptomycin (Cubicin; Novartis, UK), gentamicin (Hospira, UK) and tigecycline (Tygacil; Pfizer Inc.). MICs were determined by broth microdilution in Mueller–Hinton broth, as recommended by the CLSI.

S. aureus strain USA300 = assay: MIC by broth microdilution (CLSI), strain USA300; type: cell-based; settings: Staphylococcus aureus; USA300 (MRSA), Mueller–Hinton broth
Description: as §2, §3

## CCCCCCCCCCCCCC(=O)C1=C(O)N[C@@H](CCO)C1=O [5HE-C14-TMA, 5-hydroxyethyl-3-tetradecanoyltetramic acid]
S. aureus biofilms; 1024 mg/L, 24 h treatment, depending on the strain, resazurin
  Reduction of biofilm viability: 7–20 fold
S. aureus biofilms; MRSA and MSSA biofilms
  Concentration giving complete killing / eradication of S. aureus biofilms: 512 to 1024 mg/L
S. aureus; planktonic S. aureus
  Increase in growth inhibitory activity relative to 5HE-C10-TMA: 8 fold
S. aureus; towards S. aureus
  MIC: 12.5 µM (≈ 4.42 µg/mL)
[1]
  Selectivity index (SI, CC50/MIC): 3.5
[2]
  CC50 at 24 h: 19 µM and 7 µg/mL
[3]
  Catheter biofilm after CLS treatment: effectively eradicated; also recorded: highly effective in the eradication of MRSA biofilm
[4]
  CC50 at 24 h: 181 µM and 64 µg/mL
[5]
  Selectivity index (SI, CC50/MIC): 32
S. aureus strain BH48
  MIC: 6.25 µM and 2 µg/mL
S. aureus strain USA300
  MIC: 6.25 µM and 2 µg/mL

From PMC5400099, “5-Hydroxyethyl-3-tetradecanoyltetramic acid represents a novel treatment for intravascular catheter infections due to Staphylococcus aureus” (Journal of Antimicrobial Chemotherapy, 2016)
